Assay results taken from patent publication US6265402A, “Use of 2-phenylmorpholin-5-one derivatives” (Nikken Chemicals Co., Ltd., priority 1996, dated 2001).

System: Type IV PDE
Assay: Type IV PDE inhibitory activity
Assay type: biochemical
Conditions: Type IV PDE partially purified from rat neutrophils; 3H-cAMP substrate, 30° C., 30 minutes
Protocol: Type I, III, IV, and V PDE isozymes were prepared to study the PDE inhibitory activities of and selectivities with the compound of the invention [Trends Pharmacol Sci., 12, 19-27 (1992)]. Type I PDE was purchased from Sigma Corp. Type III, IV, and V PDE isozymes were partially purified from platelets (Type III and V) or neutrophils (Type IV) collected from rats. Each enzyme source was homogenized in a buffer (pH 6.5) containing 20 mM bisTris, 2 mM EDTA (i.e., ethylenediamine tetraacetate), 0.1 mM PMSF (i.e., phenylmethylsulfonyl fluoride), 5 mM 2-mercaptoethanol, 0.001 mM pepstatin and 0.01 mM leupeptin and was centrifuged at 30000×G for 30 minutes to obtain a supernatant, which was applied to an ion exchange column (Q-sepharose First Flow, Pharmacia Corp.) and was eluted with 0 to 1M sodium acetate. Partially purified isozymes were identified by observing the effects by conventional inhibitors.
Each PDE isozyme and the test compound dissolved in DMSO (i.e., dimethyl sulfoxide) were added to 50 mM Tris-HCl buffer containing 5 mM magnesium chloride. ^3 H-cAMP (for type III and IV PDE) or ^3 H-cGMP (for type I and V PDE) were added as substrates and were reacted at 30° C. for 30 minutes. The reaction was terminated by placing the test tube in boiling water of 100° C. for 5 minutes. The nucleotides formed by PDE were broken down by 5'-nucleotidase to ^3 H-adenosine or 3H-guanosine. The unreacted substrate and reaction product were separated through an ion-exchange column (i.e., QAE sephadex, Pharmacia Corp.) The eluted ^3 H-nucleoside was measured for its radioactivity by a liquid scintillation counter. The inhibitory activities of the compound of the present invention are shown by the IC50 value (M). Further, the inhibitory activities of the test samples against Type I, III, and V are 1/10 or less than that against type IV.

Compound	IC50
COc1ccc(C2CNC(=O)CO2)cc1OCc1ccccc1 (stereo not drawn) [Compound No. 3, 2-(3-benzyloxy-4-methoxyphenyl)morpholin-5-one]	28000 nM
COc1ccc(C2CNC(=O)CO2)cc1OCCc1ccccc1 (stereo not drawn) [Compound No. 4, 2-(4-methoxy-3-phenethyloxyphenyl)morpholin-5-one]	2700 nM
COc1ccc(C2CNC(=O)CO2)cc1OC1Cc2ccccc2C1 (stereo not drawn) [Compound No. 6, 2-[3-(2-indanyloxy)-4-methoxyphenyl]morpholin-5-one]	320 nM
COc1ccc(C2CNC(=O)CO2)cc1OC1CCCCC1 (stereo not drawn) [Compound No. 7, 2-(3-cyclohexyloxy-4-methoxyphenyl)morpholin-5-one]	11000 nM
COc1ccc(C2CN(C)C(=O)CO2)cc1OC (stereo not drawn) [Compound No. 12, 2-(3.4-dimethoxyphenyl)-4-methylmorpholin-5-one]	4700 nM
CCOC(=O)CN1CC(c2ccc(OC)c(OC3CCCC3)c2)OCC1=O (stereo not drawn) [Compound No. 15, 2-(3-cyclopentyloxy-4-methoxyphenyl)-4-ethoxycarbonylmethylmorpholin-5-one]	7900 nM
COc1ccc(C2CN(C(C)=O)C(=O)CO2)cc1OC1CCCC1 (stereo not drawn) [Compound No. 20, 4-acetyl-2-(3-cyclopentyloxy-4-methoxyphenyl)morpholin-5-one]	2000 nM
COc1ccc(C2CN(C)C(=O)CO2)cc1OC1Cc2ccccc2C1 (stereo not drawn) [Compound No. 21, 2-[3-(2-indanyloxy)-4-methoxyphenyl]-4-methylmorpholin-5-one]	44 nM
COc1ccc(C2CNC(=O)CO2)cc1OCCCCCc1ccccc1 (stereo not drawn) [Compound No. 26, 2-[4-methoxy-3-(5-phenylpentyloxy)phenyl]morpholin-5-one]	620 nM
COc1ccc(C2CN(C)C(=O)CO2)cc1OCCCCCc1ccccc1 (stereo not drawn) [Compound No. 29, 2-[4-methoxy-3-(5-phenylpentyloxy)phenyl]-4-methylmorpholin-5-one]	480 nM
COc1ccc(C2CNC(=O)CO2)cc1OCCOCc1ccccc1 (stereo not drawn) [Compound No. 30, 2-[3-[2-(benzyloxy)ethoxy]-4-methoxyphenyl]morpholin-5-one]	5700 nM
COc1ccc(C2CNC(=O)CO2)cc1OCCc1ccc(F)cc1 (stereo not drawn) [Compound No. 32, 2-[3-[2-(4-fluorophenyl)ethoxy]-4-methoxyphenyl]morpholin-5-one]	1700 nM
COc1ccc(C2CNC(=O)CO2)cc1OCC1(c2ccccc2)CC1 (stereo not drawn) [Compound No. 34, 2-[4-methoxy-3-[(1-phenylcyclopropyl)methoxy]phenyl]morpholin-5-one]	1900 nM
COc1ccc(C2CNC(=O)CO2)cc1OCCc1cccc2ccccc12 (stereo not drawn) [Compound No. 37, 2-[4-methoxy-3-[2-(1-naphthyl)ethoxy]phenyl]morpholin-5-one]	2700 nM
CCN1CC(c2ccc(OC)c(OC3Cc4ccccc4C3)c2)OCC1=O (stereo not drawn) [Compound No. 40, 4-ethyl-2-[3-(2-indanyloxy)-4-methoxyphenyl]morpholin-5-one]	93 nM
COc1ccc(C2CN(C)C(=O)CO2)cc1OCCc1ccc(F)cc1 (stereo not drawn) [Compound No. 41, 2-[3-[2-(4-fluorophenyl)ethoxy]-4-methoxyphenyl]-4-methylmorpholin-5-one]	380 nM
COc1ccc(C2CN(C)C(=O)CO2)cc1OCC1(C)CC1 (stereo not drawn) [Compound No. 43]	610 nM
COc1ccc(C2CN(C)C(=O)CO2)cc1OCC1CCCC1 (stereo not drawn) [Compound No. 44, 2-(3-cyclopentylmethoxy-4-methoxyphenyl)-4-methylmorpholin-5-one]	770 nM
COc1ccc(C2CN(C)C(=O)CO2)cc1OCCOCc1ccccc1 (stereo not drawn) [Compound No. 46, 2-[4-methoxy-3-(2-benzyloxyethoxy)phenyl]-4-methylmorpholin-5-one]	570 nM
COc1ccc(C2CN(C)C(=O)CO2)cc1OCCc1cccc2ccccc12 (stereo not drawn) [Compound No. 47]	300 nM
COc1ccc(C2CN(C)C(=O)CO2)cc1OCC1CCC1 (stereo not drawn) [Compound No. 48, 2-(3-cyclobutylmethoxy-4-methoxyphenyl)-4-methylmorpholin-5-one]	380 nM
COc1ccc(C2CN(C)C(=O)CO2)cc1OCC(C)C (stereo not drawn) [Compound No. 49, 2-[3-(2-methylpropoxy)-4-methoxyphenyl]-4-methylmorpholin-5-one]	350 nM

Results, then the compound that gave them:

IC50	Compound
7200 nM	COc1ccc(C2CNC(=O)CO2)cc1O[C@H]1CC[C@H](c2ccccc2)CC1 (relative stereo) [Compound No. 33, 2-[4-methoxy-3-(trans-4-phenylcyclohexyloxy)phenyl]morpholin-5-one]
580 nM	COc1ccc(C2CN(C)C(=O)CO2)cc1O[C@H]1CC[C@H](c2ccccc2)CC1 (relative stereo) [Compound No. 45, 2-[4-methoxy-3-(trans-4-phenylcyclohexyloxy)phenyl]-4-methylmorpholin-5-one]
3000 nM	COc1ccc(C2(C)CNC(=O)CO2)cc1OC1CCCC1 (stereo not drawn) [Compound No. 10, 2-(3-cyclopentyloxy-4-methoxyphenyl)-2-methylmorpholin-5-one]
74 nM	COc1ccc(C2(c3ccccc3)CNC(=O)CO2)cc1OC1CCCC1 (stereo not drawn) [Compound No. 11, 2-(3-cyclopentyloxy-4-methoxyphenyl)-2-phenylmorpholin-5-one]
5500 nM	COc1ccc(C2CN(Cc3ccncc3)C(=O)CO2)cc1OC1CCCC1 (stereo not drawn) [Compound No. 16, 2-(3-cyclopentyloxy-4-methoxyphenyl)-4-(4-pyridylmethyl)morpholin-5-one]
710 nM	CCN1CC(c2ccc(OC)c(OC3CCCC3)c2)OCC1=O (stereo not drawn) [Compound No. 17, 2-(3-cyclopentyloxy-4-methoxyphenyl)-4-ethylmorpholin-5-one]
450 nM	COc1ccc(C2CN(Cc3ccc4ccccc4n3)C(=O)CO2)cc1OC1CCCC1 (stereo not drawn) [Compound No. 18, 2-(3-cyclopentyloxy-4-methoxyphenyl)-4-(2-quinolylmethyl)morpholin-5-one]
5900 nM	CCCCN1CC(c2ccc(OC)c(OC3CCCC3)c2)OCC1=O (stereo not drawn) [Compound No. 19, 4-butyl-2-(3-cyclopentyloxy-4-methoxyphenyl)morpholin-5-one]
250 nM	COc1ccc(C2(c3ccccc3)CN(C)C(=O)CO2)cc1OC1CCCC1 (stereo not drawn) [Compound No. 22, 2-(3-cyclopentyloxy-4-methoxyphenyl)-4-methyl-2-phenylmorpholin-5-one]
2400 nM	COc1ccc(C2(c3ccccc3)CN(Cc3ccncc3)C(=O)CO2)cc1OC1CCCC1 (stereo not drawn) [Compound No. 23, 2-(3-cyclopentyloxy-4-methoxyphenyl)-2-phenyl-4-(4-pyridylmethyl)morpholin-5-one]
30 nM	COc1ccc(C2(c3ccccc3)CNC(=O)CO2)cc1OC1Cc2ccccc2C1 (stereo not drawn) [Compound No. 24, 2-[3-(2-indanyloxy)-4-methoxyphenyl]-2-phenylmorpholin-5-one]
110 nM	COc1ccc(C2(c3ccccc3)CN(C)C(=O)CO2)cc1OC1Cc2ccccc2C1 (stereo not drawn) [Compound No. 25, 2-[3-(2-indanyloxy)-4-methoxyphenyl]-4-methyl-2-phenylmorpholin-5-one]
30 nM	COc1ccc(C2(C)CN(C)C(=O)CO2)cc1OC1Cc2ccccc2C1 (stereo not drawn) [Compound No. 28, 2.4-dimethyl-2-[3-(2-indanyloxy)-4-methoxyphenyl]morpholin-5-one]
310 nM	COc1ccc(C2CN(C)C(=O)CO2)cc1OCC1(c2ccccc2)CC1 (stereo not drawn) [Compound No. 42, 2-[3-[(1-phenylcyclopropyl)methoxy]-4-methoxyphenyl]-4-methylmorpholin-5-one]
